How the values were obtained:
[1] = Molar enthalpy of transition or fusion; conditions: Crystal; DSC
[2] = for vapor or sublimation pressure: Transpiration method

c1ccc(-n2c3ccccc3c3ccccc32)cc1 [N-phenylcarbazole]
Conditions | Molar enthalpy of transition or fusion [kcal/mol]
[1] | 4.64

[2]
Conditions | Glass transition temperature [°C] | Normal melting temperature [°C] | vapor or sublimation pressure [kPa]
330.1 K, Crystal | – | – | 9.2e-06
336.4 K, Crystal | – | – | 2.01e-05
343.5 K, Crystal | – | – | 4.67e-05
349.2 K, Crystal | – | – | 9.26e-05
350 K, Metastable liquid | – | – | 0.000128
356.1 K, Crystal | – | – | 0.00019
356.1 K, Metastable liquid | – | – | 0.000224
362.8 K, Crystal | – | – | 0.0003947
362.8 K, Metastable liquid | – | – | 0.000395
368.5 K, Metastable liquid | – | – | 0.000657
372.4 K, Liquid | – | – | 0.000913
377.3 K, Liquid | – | – | 0.001342
Crystal, DTA | – | 94.8 | –
Glass, DSC | -18.3 | – | –
